Values quoted from earlier work, collected in patent publication US8021854B2, “Method of treating vascular disease” (priority 2007, dated 2011).
Where two headings read alike, the source gives them in different places.

Experiments:
[1] = system: patients with myeloproliferative disorders; details: 577 patients
[2] = system: patients with and without significant cardiovascular history
[3] = in vivo
[4] = system: patients with essential thrombocythemia at high risk for vascular events; details: versus hydroxyurea group
[5] = system: platelets of patients with essential thrombocythaemia; details: during therapy
[6] = system: patients with thrombocythemic states; details: 942 patients
vaso-occlusive disease = details: low doses of aspirin

What does the source list for `O=C1CN2Cc3c(ccc(Cl)c3Cl)N=C2N1` [anagrelide]?
study population that discontinued therapy due to adverse events ([1]; mean treatment duration 65 weeks): Sixteen; discontinuation of therapy due to cardiovascular adverse events ([1]; 23 patients): 4%; palpitations and tachycardia (patients) ([1]; 209 patients): 36%; patients who died from cardiovascular adverse events ([1]; four had preexisting coronary artery disease): Seven; congestive heart failure (patients) ([1]; fourteen patients): 2.4%; severity of cardiovascular events (palpitations, edema, tachycardia) ([2]; 492 patients): generally mild and did not increase cardiovascular disease morbidity; patients experiencing cardiovascular adverse events ([2]; patients with history of cardiac disease, 22 of 90): 24%; patients experiencing cardiovascular adverse events ([2]; patients without history of cardiac disease, 30 of 402, p=0.0001): 7%; adverse reaction: chest pain [3]: 8%; adverse reaction: peripheral edema [3]: 9%; adverse reaction: tachycardia [3]: 8%; withdrawal from assigned treatment ([4]; P<0.001): more likely to withdraw; odds ratio of reaching the primary end point ([4]; median follow-up 39 months, 95 percent CI 1.04 to 2.37, P=0.03): 1.57; functional or chemical platelet abnormalities [5]: no functional or chemical abnormality was improved; platelet count [5]: corrected; platelet volume [5]: constantly increased; deaths [6]: 50; deaths from cardiac causes [6]: 15; fluid retention [6]: 22%; palpitations [6]: 26%; patients who discontinued the agent due to adverse events [6]: Thirteen

For `CC(=O)Oc1ccccc1C(=O)O` [aspirin, Acetyl salicylic acid], which “incidence of major haemorrhage” value (vaso-occlusive disease) is on record?
The value was “less than 1%”.

What about the “morbidity and mortality reductions” value (vaso-occlusive disease; vaso-occlusive disease, Physician's Health Study) of the same compound?
The value was 45%.
